From ChEMBL document CHEMBL1201862, “PubChem BioAssay data set” (2004)
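Five concentrations, 48 hours, 96-well plates. GI50: concentration for 50% inhibition of growth.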 Activity calls are given as the source filed them. Cut-off read from the data, not from the text of the source: active = GI50 up to about 1.1 µM and inactive = higher.

Columns and labels:
Assay in all cases: growth of human tumour cells (NCI), 48 h
786-0 = tested on: 786-0
A549 = tested on: A549
ACHN = tested on: ACHN
CCRF-CEM = tested on: CCRF-CEM
COLO 205 = tested on: COLO 205
EKVX = tested on: EKVX
HCC 2998 = tested on: HCC 2998
HCT-116 = tested on: HCT-116
HCT-15 = tested on: HCT-15
HL-60 = tested on: HL-60
HOP-62 = tested on: HOP-62
HT-29 = tested on: HT-29
Hs-578T = tested on: Hs-578T
IGROV-1 = tested on: IGROV-1
K562 = tested on: K562
KM12 = tested on: KM12
M14 = tested on: M14
MCF7 = tested on: MCF7
MDA-MB-231 = tested on: MDA-MB-231
MDA-MB-435 = tested on: MDA-MB-435
MDA-N = tested on: MDA-N
MOLT-4 = tested on: MOLT-4
NCI-H460 = tested on: NCI-H460
NCI-H522 = tested on: NCI-H522
NCI/ADR-RES = tested on: NCI/ADR-RES
OVCAR-4 = tested on: OVCAR-4
OVCAR-5 = tested on: OVCAR-5
OVCAR-8 = tested on: OVCAR-8
PC-3 = tested on: PC-3
RPMI-8226 = tested on: RPMI-8226
SF-268 = tested on: SF-268
SF-295 = tested on: SF-295
SF-539 = tested on: SF-539
SK-MEL-28 = tested on: SK-MEL-28
SK-MEL-5 = tested on: SK-MEL-5
SK-OV-3 = tested on: SK-OV-3
SN12C = tested on: SN12C
SNB-19 = tested on: SNB-19
SNB-75 = tested on: SNB-75
SR = tested on: SR
SW-620 = tested on: SW-620
T47D = tested on: T47D
TK-10 = tested on: TK-10
U-251 = tested on: U-251
UACC-257 = tested on: UACC-257
UO-31 = tested on: UO-31
A498 = tested on: A498
CAKI-1 = tested on: CAKI-1
DU-145 = tested on: DU-145
HOP-92 = tested on: HOP-92
LOX IMVI = tested on: LOX IMVI
Malme-3M = tested on: Malme-3M
NCI-H226 = tested on: NCI-H226
NCI-H23 = tested on: NCI-H23
OVCAR-3 = tested on: OVCAR-3
RXF 393 = tested on: RXF 393
SK-MEL-2 = tested on: SK-MEL-2
UACC-62 = tested on: UACC-62

Measured: GI50

C[n+]1c(-c2ccc(/C=N/N=C/c3ccc(-c4cn5ccccc5[n+]4C)cc3)cc2)cn2ccccc21
> 100 µM: HCT-15
inactive: 786-0 > 100 µM | A549 > 100 µM | ACHN > 100 µM | CCRF-CEM > 100 µM | COLO 205 > 100 µM | EKVX > 100 µM | HCC 2998 > 100 µM | HCT-116 > 100 µM | HL-60 > 100 µM | HOP-62 > 100 µM | HT-29 > 100 µM | Hs-578T > 100 µM | IGROV-1 > 100 µM | K562 > 100 µM | KM12 > 100 µM | M14 > 100 µM | MCF7 > 100 µM | MDA-MB-231 > 100 µM | MDA-MB-435 > 100 µM | MDA-N > 100 µM | MOLT-4 > 100 µM | NCI-H460 > 100 µM | NCI-H522 > 100 µM | NCI/ADR-RES > 100 µM | OVCAR-4 > 100 µM | OVCAR-5 > 100 µM | OVCAR-8 > 100 µM | PC-3 > 100 µM | RPMI-8226 > 100 µM | SF-268 > 100 µM | SF-295 > 100 µM | SF-539 > 100 µM | SK-MEL-28 > 100 µM | SK-MEL-5 > 100 µM | SK-OV-3 > 100 µM | SN12C > 100 µM | SNB-19 > 100 µM | SNB-75 > 100 µM | SR > 100 µM | SW-620 > 100 µM | T47D > 100 µM | TK-10 > 100 µM | U-251 > 100 µM | UACC-257 > 100 µM | UO-31 > 100 µM

O=[N+]([O-])c1ccc(-c2nnc(C34CC5CC(CC(C5)C3)C4)o2)cc1
inactive: 786-0 > 100 µM | A498 > 100 µM | A549 > 100 µM | ACHN > 100 µM | CAKI-1 > 100 µM | CCRF-CEM > 100 µM | COLO 205 > 100 µM | DU-145 > 100 µM | EKVX > 100 µM | HCC 2998 > 100 µM | HCT-116 > 100 µM | HL-60 > 100 µM | HOP-62 > 100 µM | HOP-92 > 100 µM | HT-29 > 100 µM | Hs-578T > 100 µM | IGROV-1 > 100 µM | K562 > 100 µM | KM12 > 100 µM | LOX IMVI > 100 µM | M14 > 100 µM | MDA-MB-231 > 100 µM | MDA-MB-435 > 100 µM | MDA-N > 100 µM | MOLT-4 > 100 µM | Malme-3M > 100 µM | NCI-H226 > 100 µM | NCI-H23 > 100 µM | NCI-H460 > 100 µM | NCI-H522 > 100 µM | NCI/ADR-RES > 100 µM | OVCAR-3 > 100 µM | OVCAR-4 > 100 µM | OVCAR-5 > 100 µM | PC-3 > 100 µM | RPMI-8226 > 100 µM | RXF 393 > 100 µM | SF-268 > 100 µM | SF-295 > 100 µM | SF-539 > 100 µM | SK-MEL-28 > 100 µM | SK-MEL-2 > 100 µM | SK-MEL-5 > 100 µM | SK-OV-3 > 100 µM | SN12C > 100 µM | SNB-19 > 100 µM | SNB-75 > 100 µM | SR > 100 µM | SW-620 > 100 µM | T47D > 100 µM | TK-10 > 100 µM | U-251 > 100 µM | UACC-62 > 100 µM | UO-31 > 100 µM
> 100 µM: HCT-15

OC(c1cc(-c2ccc(C(F)(F)F)cc2)nc(C(F)(F)F)c1)C1CCCCN1 (centres undefined) [ENPIROLINE PHOSPHATE]
inactive: 786-0 1.89 µM | A498 2.24 µM | CAKI-1 5.53 µM | CCRF-CEM 1.87 µM | COLO 205 1.82 µM | HCC 2998 1.69 µM | HCT-116 2 µM | HL-60 2.01 µM | HT-29 1.95 µM | IGROV-1 1.73 µM | KM12 1.87 µM | LOX IMVI 1.73 µM | M14 1.55 µM | MCF7 1.8 µM | MDA-MB-435 1.86 µM | MDA-N 1.67 µM | MOLT-4 1.86 µM | Malme-3M 1.78 µM | NCI-H460 2.08 µM | NCI-H522 1.69 µM | NCI/ADR-RES 2.62 µM | OVCAR-4 1.87 µM | PC-3 2.49 µM | RPMI-8226 2.61 µM | RXF 393 1.78 µM | SK-MEL-2 2.02 µM | SK-OV-3 2.3 µM | SR 2.33 µM | SW-620 1.85 µM | U-251 1.88 µM | UACC-257 2.03 µM | UACC-62 1.78 µM
2.18 µM: HCT-15
